Test results as given in patent publication US11453671B2, “Pyrazolopyrimidine inhibitors of JAK kinases and uses thereof” (Genentech, Inc., priority 2020, dated 2022).

Assays:
[1] = Cell cytotoxicity assay A549 (CellTiter-Glo, 72 hours); assay type: cell-based; details: human, A549 cells, read-out: Cytotox A549 EC50
Procedure: (§1) A549 (ATCC® CCL-185™), Jurkat clone E6-1 (ATCC® TIB-152™) and HEK-293T (ATCC® CRL-1573™) cells maintained at a sub-confluent density in T175 flasks were used. Cells in exponential growth phase were plated (450 cells in 45 μL of medium) in Greiner 384-well black/clear tissue culture treated plates (Greiner Catalog No. 781091). After dispensing cells, plates were allowed to equilibrate at room temperature for 30 minutes, after which time the cell plates were placed overnight in a 37° C. CO2 and humidity-controlled incubator. The following day, cells were treated with test agent diluted in 100% DMSO (0.5% final DMSO concentration on cells) with a 10-point titration and a top concentration of 50 μM. Cells and compounds were then incubated for 72 hours in a 37° C. CO2 and humidity-controlled incubator, after which time cell viability was measured by adding CellTiter-Glo® (Promega G7572) reagent to all wells. Plates were incubated at room temperature for 20 minutes and then the well luminescence was read on an EnVision plate reader (Perkin Elmer Life Sciences).

[2] = tested on: JAK1: IL-13-stimulated STAT6 phosphorylation in BEAS-2B cells; test: P-STAT6 BEAS-2B+IL-13 Cell Assay; assay type: cell-based, human; details: Homo sapiens, BEAS-2B, IL-13 stimulation, read-out: Cellular JAK1 PSTAT6 BEAS2B + IL13 IC50
Procedure: P-STAT6 BEAS-2B+IL-13 Cell Assay
In order to study the effect of JAK1 inhibitors in a cell line that is relevant to the cell biology of human asthma, an IL-13-stimulated STAT6 phosphorylation assay in the human lung bronchial epithelial BEAS-2B cell line was developed.
BEAS-2B cells (ATCC® CRL-9609™) were grown in Bronchial Epithelial Growth Medium (BEGM) (Lonza Catalog No. CC-3170; Walkersville, Md.; or PromoCell Catalog No. C-21060; Heidelberg, Germany). Test compound stock solutions (0.5 mM in DMSO) were serially diluted 1:2 in DMSO to generate a 10-point concentration curve (at 500×test concentration), which was further diluted by a 50-fold dilution step in BEGM to generate a 10× concentration curve (in 2% DMSO). Cells were plated at 100,000 cells/well in 200 μL of BEGM in 96-well plates and incubated for 48 hours at 37° C. in a humidified incubator. Medium was aspirated from the cells and replaced with 70 μL of fresh BEGM. Diluted test compound (10 μL; or 2% DMSO in assay medium) was added to the cells, and the plates were incubated for 1 hour at 37° C. in a humidified incubator. Twenty μL of 250 ng/mL human recombinant IL-13 (Bio Techne Catalog No. 213-ILB) was then added to the cells and incubated for 15 minutes at 37° C. Medium was aspirated from the cells and 60 μL of ice-cold 1×cell lysis buffer (Cell Signaling Technologies; Catalog No. 9803S) containing 1 mM PMSF was added to the cells. Assay plates were incubated at −80° C. for at least 1 hour. P-STAT6 was measured by coating GAR plates (MSD; Catalog No. L45RA-1) with rabbit anti-human total STAT6 antibody (Cell Signaling Technologies; Catalog No. 9362S), incubating the cell lysates in the coated plates overnight at 4° C., and then detecting with mouse anti-phospho-STAT6 (Tyr641) Clone 16E12 antibody (Millipore; Catalog No. 05-590, custom labeled by MSD with SULFO-tag) using standard MSD plate processing, washing, and detection protocols. Plates were read on the MESO SECTOR S600. Data Analysis
Data analysis was performed by subtracting negative control values from all wells and determining percent of control using the positive control values; the IC50 was determined with a four-parameter logistic fit model as shown in Equation 4.

[3] = Cell cytotoxicity assay HEK-293T (CellTiter-Glo, 72 hours); assay type: cell-based; details: human, HEK-293T cells, read-out: Cytotox K-293 EC50
From the text: (§2) Cytotoxicity assays. Hepatocyte toxicity, general cytotoxicity or cytotoxicity of unknown mechanism is an undesirable feature for a potential drug, including inhaled drugs. It may be of benefit for an inhaled JAK1 or JAK1/JAK2 inhibitor to have low intrinsic cytotoxicity against various cell types. Typical cell types used to assess cytotoxicity include both primary cells such as human hepatocytes, and proliferating established cell lines such as Jurkat and HEK-293. […] Methods of measuring cytotoxicity are known in the art. In some embodiments, compounds described herein were tested as follows:
(§3) (a) Jurkat and HEK293T cells were maintained at a sub confluent density in T175 flasks. Cells were plated at 450 cells/45 μl medium in Greiner 384 well black/clear tissue culture treated plates. (Greiner Catalog #781091). After dispensing cells, plates were equilibrated at room temperature for 30 minutes. After 30 minutes at room temperature, cells were incubated overnight at 37° C. in a CO2 and humidity controlled incubator. The following day, cells were treated with compounds diluted in 100% DMSO (final DMSO concentration on cells=0.5%) with a 10 point dose-response curve with a top concentration of 50 μM. Cells and compounds were then incubated for 72 hours overnight at 37° C. in a CO2 and humidity controlled incubator. After 72 hours of incubation, viability was measured using CellTiterGlo® (Promega Catalog #G7572) to all wells. After incubation at room temperature for 20 minutes, plates were read on EnVision™ (Perkin Elmer Life Sciences) using luminescence mode;
as §1

[4] = molecular target: T1, recombinant human JAK1 kinase domain protein (Residues 854-1154) (Homo sapiens, UniProt P23458); test: JAK1 biochemical assay (microfluidic mobility shift, peptide phosphorylation); details: 25 μM ATP, 1 nM total JAK1; read-out: Enzyme JAK1 Ki
T1 construct: human JAK1 kinase domain protein (Residues 854-1154); purchased Proteros Biostructures GmbH (Martinsried, Germany); host or cells: insect cells
From the text: JAK1 and JAK2 Biochemical Assays

[5] = Cell cytotoxicity assay Jurkat (CellTiter-Glo, 72 hours); assay type: cell-based; details: human, Jurkat clone E6-1 cells, read-out: Cytotox Jurkat EC50
From the text: as §2, §3, §1

[6] = molecular target: Recombinant human JAK2 kinase domain protein (Residues 812-1132) (Homo sapiens, UniProt O60674); test: JAK2 biochemical assay (microfluidic mobility shift, peptide phosphorylation); details: Enzyme JAK2 Ki (nM), 25 μM ATP, 0.2 nM total JAK2
Procedure: The in vitro biochemical assays quantify JAK-catalyzed phosphorylation of a synthetic peptide, as detected using a LabChip® EZ Reader II microfluidic mobility shift instrument (PerkinElmer; Waltham, Mass.). […] Y-1B is fluorescently labeled on the N-terminus with 5-FAM (5-carboxyfluorescein) and contains a single tyrosine residue (Y) that can be phosphorylated by JAK activity. The substrate peptide stock is prepared in DMSO at 5 mM.
In each titration experiment, test compound was tested in duplicate at each of the twelve concentrations. Blank reactions contained ATP, peptide, and DMSO, but no JAK or test compound, whereas uninhibited control reactions contained ATP, peptide, JAK, and DMSO, but no test compound.
Peptide plus ATP mixture (24 μL) was added to 1 μL of test compound in DMSO (or DMSO alone). The reactions were initiated by adding 25 μL of JAK enzyme to the inhibitor/peptide/ATP mixture before thoroughly mixing the resultant solution. Reactions were incubated at room temperature (22° C.-23° C.) in a final volume of 50 μL per well in 384-well plates.
In each reaction, the residual Y-1B substrate and the phospho-peptide product generated were separated using the EZ Reader II instrument. Electrophoretic separation of molecules of product from molecules of substrate was achieved using downstream and upstream voltages of −500 and −2600 V, respectively, at an operating pressure of −1.3 psi.
The extent (or percent) of conversion of substrate to product was calculated from the corresponding peak heights in the electropherogram using HTS Well Analyzer software, Version 5.2 (PerkinElmer), and the following equation (Equation 1): % conversion=[P÷(S+P)]×100 Equation 1 where S and P represent the peak heights of the substrate and product, respectively. After any baseline signal from blank wells containing no JAK was subtracted from the signal of all test wells, the % conversion data were converted to fractional activity as shown in Equation 2, where vi and vo are the % conversion in the presence and absence of test compound, respectively.

[7] = Table 3, 72 hours, top concentration of 50 μM
[8] = Table 4, methyl-desmethyl analog pairs

Recombinant human JAK2 kinase domain protein (Residues 812-1132), sequence (O60674 812-1132): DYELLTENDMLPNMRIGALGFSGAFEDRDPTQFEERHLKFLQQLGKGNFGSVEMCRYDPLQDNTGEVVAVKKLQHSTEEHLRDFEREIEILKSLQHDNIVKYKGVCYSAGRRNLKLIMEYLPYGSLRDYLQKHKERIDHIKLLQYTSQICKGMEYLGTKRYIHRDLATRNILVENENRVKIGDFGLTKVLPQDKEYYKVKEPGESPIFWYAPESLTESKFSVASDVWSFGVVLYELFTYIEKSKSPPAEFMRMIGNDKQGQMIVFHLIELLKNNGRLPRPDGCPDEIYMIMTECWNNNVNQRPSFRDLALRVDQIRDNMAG
T1 sequence (P23458 854-1154): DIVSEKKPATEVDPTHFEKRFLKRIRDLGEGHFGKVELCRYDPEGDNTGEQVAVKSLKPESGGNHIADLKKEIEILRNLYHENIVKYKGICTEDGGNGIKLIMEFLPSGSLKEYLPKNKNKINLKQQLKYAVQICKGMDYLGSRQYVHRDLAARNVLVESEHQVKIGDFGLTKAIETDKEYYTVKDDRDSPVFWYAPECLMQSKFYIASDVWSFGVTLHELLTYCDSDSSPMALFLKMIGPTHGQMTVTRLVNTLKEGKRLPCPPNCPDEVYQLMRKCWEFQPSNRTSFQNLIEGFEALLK

| SMILES | Ki [4] | Ki [6] | EC50 at 72 h [1, 7] | IC50 [2] | EC50 at 72 h [3, 7] | EC50 at 72 h [5, 7] | EC50 at 72 h [1, 8] | EC50 at 72 h [3, 8] | EC50 at 72 h [5, 8] |
| --- | --- | --- | --- | --- | --- | --- | --- | --- | --- |
| CS(=O)(=O)c1ccc(OC(F)F)c(-c2n[nH]cc2NC(=O)c2cnn3cccnc23)c1 [Example 4 in WO201708 9390, reference compound] |  |  |  |  |  |  | 22000 nM | 2100 nM | 6200 nM |
| O=C(Nc1c[nH]nc1-c1cc(S(=O)(=O)C(F)F)ccc1OC(F)F)c1cnn2cccnc12 [reference compound] |  |  |  |  |  |  | 260 nM | 38 nM | 160 nM |
| CCS(=O)(=O)c1ccc(OC(F)F)c(-c2n[nH]cc2NC(=O)c2cnn3cccnc23)c1 [Example. 192 in WO201708 9390, reference compound] |  |  |  |  |  |  | 2370 nM | 437 nM | 790 nM |
| CCS(=O)(=O)c1ccc(OC(F)F)c(-c2nn(C)cc2NC(=O)c2cnn3cccnc23)c1 [Example 6, N-[3-[2-(difluoromethoxy)-5-ethylsulfonyl-phenyl]-1-methyl-pyrazol-4-yl]pyrazolo[1,5-a]pyrimidine-3-carboxamide] | 0.48 nM |  | 6750 nM | 18 nM | 6050 nM | 21500 nM | 6750 nM | 6050 nM | 21500 nM |

More lines, main results first:

| Ki [4] | Ki [6] | SMILES | EC50 at 72 h [1, 7] | IC50 [2] | EC50 at 72 h [3, 7] | EC50 at 72 h [5, 7] | EC50 at 72 h [1, 8] | EC50 at 72 h [3, 8] | EC50 at 72 h [5, 8] |
| --- | --- | --- | --- | --- | --- | --- | --- | --- | --- |
| 0.21 nM | 0.12 nM | Cn1cc(NC(=O)c2cnn3cccnc23)c(-c2cc(S(=O)(=O)c3cccc(O)c3)ccc2OC(F)F)n1 [Example 11, N-[3-[2-(difluoromethoxy)-5-(3-hydroxyphenyl)sulfonyl-phenyl]-1-methyl-pyrazol-4-yl]pyrazolo[1,5-a]pyrimidine-3-carboxamide] | 6400 nM | 17 nM | 3700 nM | 5500 nM |  |  |  |
| 0.6 nM | 0.25 nM | CC(O)C(C)S(=O)(=O)c1ccc(OC(F)F)c(-c2nn(C)cc2NC(=O)c2cnn3cccnc23)c1 (single isomer, unassigned) [Example 68, N-[3-[2-(difluoromethoxy)-5-(2-hydroxy-1-methyl-propyl)sulfonyl-phenyl]-1-methyl-pyrazol-4-yl]pyrazolo[1,5-a]pyrimidine-3-carboxamide] | ≥ 50000 nM | 62 nM | 19000 nM | 32000 nM |  |  |  |
| 0.27 nM | 0.18 nM | Cn1cc(NC(=O)c2cnn3cccnc23)c(-c2cc(S(=O)(=O)C(F)F)ccc2OC(F)F)n1 [Example 9, N-[3-[2-(difluoromethoxy)-5-(difluoromethylsulfonyl)phenyl]-1-methyl-pyrazol-4-yl]pyrazolo[1,5-a]pyrimidine-3-carboxamide] | 1660 nM | 15 nM | 2200 nM | 3500 nM | 1660 nM | 2200 nM | 3500 nM |
| 0.94 nM | 1.5 nM | CN1CCC[C@H]1Cn1cc(NC(=O)c2cnn3cccnc23)c(-c2cc(S(C)(=O)=O)ccc2OC(F)F)n1 [Example 72, N-[3-[2-(difluoromethoxy)-5-methylsulfonyl-phenyl]-1-[[(2S)-1-methylpyrrolidin-2-yl]methyl]pyrazol-4-yl]pyrazolo[1,5-a]pyrimidine-3-carboxamide] | ≥ 50000 nM | 31 nM | 20000 nM | 49000 nM |  |  |  |
| 0.34 nM | 0.25 nM | C[C@H](O)Cn1cc(S(=O)(=O)c2ccc(OC(F)F)c(-c3nn(C)cc3NC(=O)c3cnn4cccnc34)c2)cn1 [Example 38, N-[3-[2-(difluoromethoxy)-5-[1-[(2S)-2-hydroxypropyl]pyrazol-4-yl]sulfonyl-phenyl]-1-methyl-pyrazol-4-yl]pyrazolo[1,5-a]pyrimidine-3-carboxamide] |  | 89 nM |  |  |  |  |  |
